# Experimental data as given in ChEMBL document CHEMBL3885861, “Open TG-GATES”.
# Species: Rattus norvegicus
# Experiment: Open TG-GATES - Regimen: Single
# Type: toxicity, organism-based, Sprague-Dawley
# Set-up: regimen Single, gender Male, age 6 weeks
# Details: in vivo, po, 30 mg/kg, route gavage, dose level High; for APTT / Bas / Eos / Fbg / Hb / Ht / Lym / MCH / MCHC / MCV / Mono / Neu / PT / Plat / RBC / Ret / WBC: tissue Blood; for KIDNEY_L / KIDNEY_R / KIDNEY_TOTAL: tissue Kidney; for LIVER: tissue Liver; for A/G / ALP / ALT / AST / BUN / CRE / Ca / Cl / DBIL / GLC / IP / K / LDH / Na / PL / RALB / TBIL / TC / TG / TP / gamma-GTP: tissue Plasma
compound,measurement,setting,value
CN(C)CCC(c1ccc(Cl)cc1)c1ccccn1 (configuration not stated) [CHLORPHENIRAMINE],TERMINAL_BW,3 h,197.2 g
same,APTT,3 h,16.3 s
same,Bas,3 h,0%
same,Eos,3 h,0.8%
same,Fbg,3 h,287.6 mg/dL
same,Hb,3 h,13.5 g/dL
same,Ht,3 h,42.6%
same,Lym,3 h,74.2%
same,MCH,3 h,21.2 pg
same,MCHC,3 h,31.8%
same,MCV,3 h,66.5 fL
same,Mono,3 h,3.4%
same,Neu,3 h,21%
same,PT,3 h,14.8 s
same,Plat,3 h,128.4 x10_4/uL
same,RBC,3 h,640.8 x10_4/ul
same,Ret,3 h,10.2%
same,WBC,3 h,67.1 x10_2/uL
same,KIDNEY_L,3 h,0.9 g
same,KIDNEY_R,3 h,0.9 g
same,KIDNEY_TOTAL,3 h,1.7 g
same,LIVER,3 h,9 g
same,A/G,3 h,0.9
same,ALP,3 h,1548.6 IU/L
same,ALT,3 h,43.6 IU/L
same,AST,3 h,79.2 IU/L
same,BUN,3 h,8.4 mg/dL
same,CRE,3 h,0.1 mg/dL
same,Ca,3 h,10.5 mg/dL
same,Cl,3 h,108.8 meq/L
same,DBIL,3 h,0.008 mg/dL
same,GLC,3 h,183.6 mg/dL
same,IP,3 h,10 mg/dL
same,K,3 h,4.1 meq/L
same,LDH,3 h,139.4 IU/L
same,Na,3 h,143.4 meq/L
same,PL,3 h,146.6 mg/dL
same,RALB,3 h,2.6 g/dL
same,TBIL,3 h,0.046 mg/dL
same,TC,3 h,79 mg/dL
same,TG,3 h,59 mg/dL
same,TP,3 h,5.5 g/dL
same,gamma-GTP,3 h,1.2 IU/L
same,TERMINAL_BW,6 h,191.8 g
same,APTT,6 h,24.9 s
same,Bas,6 h,0%
same,Eos,6 h,0.8%
same,Fbg,6 h,302 mg/dL
same,Hb,6 h,13.8 g/dL
same,Ht,6 h,42.4%
same,Lym,6 h,73.2%
same,MCH,6 h,20.9 pg
same,MCHC,6 h,32.5%
same,MCV,6 h,64.2 fL
same,Mono,6 h,3.4%
same,Neu,6 h,21.8%
same,PT,6 h,14.7 s
same,Plat,6 h,130.7 x10_4/uL
same,RBC,6 h,659.8 x10_4/ul
same,Ret,6 h,8.9%
same,WBC,6 h,76.3 x10_2/uL
same,KIDNEY_L,6 h,0.8 g
same,KIDNEY_R,6 h,0.8 g
same,KIDNEY_TOTAL,6 h,1.6 g
same,LIVER,6 h,8.2 g
same,A/G,6 h,0.9
same,ALP,6 h,1166.8 IU/L
same,ALT,6 h,37.4 IU/L
same,AST,6 h,72.4 IU/L
same,BUN,6 h,7.6 mg/dL
same,CRE,6 h,0.1 mg/dL
same,Ca,6 h,10.5 mg/dL
same,Cl,6 h,108 meq/L
same,DBIL,6 h,0.006 mg/dL
same,GLC,6 h,181 mg/dL
same,IP,6 h,10.2 mg/dL
same,K,6 h,4.4 meq/L
same,LDH,6 h,126 IU/L
same,Na,6 h,142.4 meq/L
same,PL,6 h,138.4 mg/dL
same,RALB,6 h,2.5 g/dL
same,TBIL,6 h,0.042 mg/dL
same,TC,6 h,83.6 mg/dL
same,TG,6 h,35 mg/dL
same,TP,6 h,5.4 g/dL
same,gamma-GTP,6 h,1.4 IU/L
same,TERMINAL_BW,9 h,189.4 g
same,APTT,9 h,19.9 s
same,Bas,9 h,0%
same,Eos,9 h,1%
same,Fbg,9 h,317 mg/dL
same,Hb,9 h,13.6 g/dL
same,Ht,9 h,42.2%
same,Lym,9 h,73.8%
same,MCH,9 h,20.7 pg
same,MCHC,9 h,32.3%
same,MCV,9 h,64.2 fL
same,Mono,9 h,2.6%
same,Neu,9 h,22.2%
same,PT,9 h,14.9 s
same,Plat,9 h,115 x10_4/uL
same,RBC,9 h,656.4 x10_4/ul
same,Ret,9 h,9.1%
same,WBC,9 h,68.4 x10_2/uL
same,KIDNEY_L,9 h,0.9 g
same,KIDNEY_R,9 h,0.9 g
same,KIDNEY_TOTAL,9 h,1.7 g
same,LIVER,9 h,8 g
same,A/G,9 h,0.9
same,ALP,9 h,1297.6 IU/L
same,ALT,9 h,35.2 IU/L
same,AST,9 h,71.8 IU/L
same,BUN,9 h,7.4 mg/dL
same,CRE,9 h,0.1 mg/dL
same,Ca,9 h,10.2 mg/dL
same,Cl,9 h,106.4 meq/L
same,DBIL,9 h,0.008 mg/dL
same,GLC,9 h,171.8 mg/dL
same,IP,9 h,10.4 mg/dL
same,K,9 h,4 meq/L
same,LDH,9 h,95 IU/L
same,Na,9 h,142.4 meq/L
same,PL,9 h,145 mg/dL
same,RALB,9 h,2.5 g/dL
same,TBIL,9 h,0.056 mg/dL
same,TC,9 h,84.2 mg/dL
same,TG,9 h,45 mg/dL
same,TP,9 h,5.4 g/dL
same,gamma-GTP,9 h,1.2 IU/L
same,TERMINAL_BW,24 h,198.3 g
same,APTT,24 h,17 s
same,Bas,24 h,0.2%
same,Eos,24 h,1.2%
same,Fbg,24 h,324.6 mg/dL
same,Hb,24 h,13.6 g/dL
same,Ht,24 h,41.8%
same,Lym,24 h,79.8%
same,MCH,24 h,20.8 pg
same,MCHC,24 h,32.6%
same,MCV,24 h,63.8 fL
same,Mono,24 h,2.6%
same,Neu,24 h,15.6%
same,PT,24 h,14.8 s
same,Plat,24 h,114.6 x10_4/uL
same,RBC,24 h,655.4 x10_4/ul
same,Ret,24 h,7.8%
same,WBC,24 h,93.8 x10_2/uL
same,KIDNEY_L,24 h,0.9 g
same,KIDNEY_R,24 h,0.9 g
same,KIDNEY_TOTAL,24 h,1.8 g
same,LIVER,24 h,8 g
same,A/G,24 h,0.9
same,ALP,24 h,1572.4 IU/L
same,ALT,24 h,45.8 IU/L
same,AST,24 h,78.4 IU/L
same,BUN,24 h,12.4 mg/dL
same,CRE,24 h,0.2 mg/dL
same,Ca,24 h,10.8 mg/dL
same,Cl,24 h,109 meq/L
same,DBIL,24 h,0.012 mg/dL
same,GLC,24 h,185 mg/dL
same,IP,24 h,7.9 mg/dL
same,K,24 h,4.6 meq/L
same,LDH,24 h,120.4 IU/L
same,Na,24 h,142.4 meq/L
same,PL,24 h,145.4 mg/dL
same,RALB,24 h,2.6 g/dL
same,TBIL,24 h,0.046 mg/dL
same,TC,24 h,89.4 mg/dL
same,TG,24 h,41.4 mg/dL
same,TP,24 h,5.6 g/dL
same,gamma-GTP,24 h,1.4 IU/L
